Measurements taken from the supplement of paper PMC10307832.

Columns and labels:
Assay in all cases: relative viability (nuclei count vs DMSO), 5 days (fraction); higher = more cells survive
[1] = compound: CC1=C(C(=NN1)C)CC2=C(C3=C(S2)N(C(=O)N(C3=O)C)CC(C)C)C(=O)N4C[C@@H](CO4)O + COc1cccc2cc(-c3nc([C@H]4CC[C@H](C(=O)O)CC4)n4ncnc(N)c34)[nH]c12 [OSI-027] (partner 0.5 µM)
Outline: (§1)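 Cells from lung cancer lines were seeded into 1536-well plates and, one day later, dosed by pin tool. Treatments were either a single drug or a fixed dose of an anchor drug with five library-drug doses (not always all listed) in √10 steps. After 5 days, nuclei were stained in a one-step fixation (final 0.05% Triton X-100, 1% formaldehyde, 1 ug/ml Hoechst) and counted on 4× images, and relative viability is the treated-to-vehicle nuclei ratio, as the median of duplicate plates.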

[2] = compound: CC1=C(C(=NN1)C)CC2=C(C3=C(S2)N(C(=O)N(C3=O)C)CC(C)C)C(=O)N4C[C@@H](CO4)O + CS(=O)(=O)N1CCN(Cc2cc3nc(-c4cccc5[nH]ncc45)nc(N4CCOCC4)c3s2)CC1 [Pictilisib] (partner 1 µM)
Outline: as §1

[3] = compound: CC1=C(C(=NN1)C)CC2=C(C3=C(S2)N(C(=O)N(C3=O)C)CC(C)C)C(=O)N4C[C@@H](CO4)O + C[C@]1(O)C[C@@H](c2nc(-c3ccc4ccc(-c5ccccc5)nc4c3)c3c(N)nccn32)C1 [Linsitinib] (partner 1 µM)
Outline: as §1

[4] = compound: CC1=C(C(=NN1)C)CC2=C(C3=C(S2)N(C(=O)N(C3=O)C)CC(C)C)C(=O)N4C[C@@H](CO4)O + Cc1cc(Nc2cc(N3CCN(C)CC3)nc(Sc3ccc(NC(=O)C4CC4)cc3)n2)n[nH]1 [Tozasertib] (partner 0.1 µM)
Outline: as §1

Row | Cell Line | relative viability ([1]; first compound 0.0025 µM) | relative viability ([1]; first compound 0.007906 µM) | relative viability ([1]; first compound 0.025 µM) | relative viability ([1]; first compound 0.07906 µM) | relative viability ([1]; first compound 0.25 µM) | relative viability ([2]; first compound 0.0025 µM) | relative viability ([2]; first compound 0.007906 µM) | relative viability ([2]; first compound 0.025 µM) | relative viability ([2]; first compound 0.07906 µM) | relative viability ([2]; first compound 0.25 µM) | relative viability ([3]; first compound 0.0025 µM) | relative viability ([3]; first compound 0.007906 µM) | relative viability ([3]; first compound 0.025 µM) | relative viability ([3]; first compound 0.07906 µM) | relative viability ([3]; first compound 0.25 µM) | relative viability ([4]; first compound 0.0025 µM) | relative viability ([4]; first compound 0.007906 µM) | relative viability ([4]; first compound 0.025 µM) | relative viability ([4]; first compound 0.07906 µM) | relative viability ([4]; first compound 0.25 µM)
1 | NCI-H1993 | 0.515 | 0.539 | 0.541 | 0.463 | 0.57 | 0.866 | 0.888 | 0.89 | 0.728 | 0.756 | 0.75 | 0.678 | 0.855 | 0.781 | 0.74 | 0.559 | 0.522 | 0.546 | 0.508 | 0.572
2 | NCI-H2009 | 0.742 | 0.701 | 0.616 | 0.706 | 0.695 | 0.875 | 0.884 | 0.842 | 0.998 | 0.909 | 1.24 | 1.22 | 1.19 | 1.27 | 1.26 | 0.751 | 0.695 | 0.779 | 0.829 | 0.745
3 | NCI-H2023 | 0.465 | 0.423 | 0.481 | 0.473 | 0.393 | 0.308 | 0.288 | 0.276 | 0.23 | 0.236 | 0.648 | 0.786 | 0.696 | 0.777 | 0.683 | 0.332 | 0.362 | 0.356 | 0.412 | 0.327
4 | NCI-H2085 | 0.722 | 0.685 | 0.759 | 0.736 | 0.447 | 0.527 | 0.455 | 0.449 | 0.468 | 0.399 | 0.953 | 0.956 | 0.814 | 0.844 | 0.77 | 0.723 | 0.622 | 0.76 | 0.72 | 0.669
5 | NCI-H2087 | 0.72 | 0.506 | 0.517 | 0.564 | 0.54 | 0.958 | 0.908 | 0.838 | 1.04 | 0.921 | 0.962 | 1.08 | 1.02 | 1.02 | 0.928 | 0.275 | 0.233 | 0.281 | 0.219 | 0.33
6 | NCI-H2126 | 0.78 | 0.669 | 0.787 | 0.661 | 0.684 | 0.513 | 0.493 | 0.509 | 0.478 | 0.494 | 0.712 | 0.789 | 0.673 | 0.72 | 0.67 | 0.923 | 0.835 | 0.832 | 0.788 | 0.901
7 | NCI-H2228 | 0.68 | 0.61 | 0.683 | 0.609 | 0.649 | 0.546 | 0.356 | 0.439 | 0.352 | 0.443 | 0.912 | 1.07 | 0.672 | 0.764 | 0.674 | 0.239 | 0.248 | 0.265 | 0.26 | 0.279
8 | NCI-H2347 | 0.472 | 0.496 | 0.444 | 0.331 | 0.354 | 0.905 | 0.909 | 0.507 | 0.836 | 0.547 | 0.992 | 0.944 | 0.956 | 0.894 | 1.03 | 0.584 | 0.591 | 0.54 | 0.522 | 0.727
9 | NCI-H2405 | 0.703 | 0.645 | – | 0.62 | 0.661 | 0.459 | 0.422 | – | 0.432 | 0.476 | 0.972 | 0.902 | – | 0.881 | 0.73 | 0.697 | 0.729 | – | 0.577 | 0.676
10 | NCI-H3122 | 0.912 | 0.765 | 0.927 | 1.04 | 0.989 | 0.644 | 0.618 | 0.642 | 0.606 | 0.587 | 1.04 | 1.08 | 0.99 | 0.976 | 0.947 | 0.37 | 0.242 | 0.376 | 0.414 | 0.485
11 | PC-3 [JPC-3] | 0.763 | 0.679 | 0.755 | 0.785 | 0.859 | 0.896 | 0.866 | 0.732 | 0.797 | 0.763 | 0.966 | 0.945 | 0.974 | 0.958 | 1.01 | 0.932 | 0.74 | 0.867 | 0.932 | 1.01
12 | PC-14 | 0.785 | 1.19 | 0.78 | 1.01 | 1.16 | 0.737 | 1.01 | 0.805 | 0.767 | 0.842 | 1.06 | 1.02 | 0.93 | 0.936 | 0.94 | 0.593 | 0.549 | 0.525 | 0.614 | 0.598
13 | RERF-LC-KJ | 0.589 | 0.519 | 0.598 | 0.681 | 0.627 | 0.623 | 0.527 | 0.557 | 0.518 | 0.587 | 0.973 | 0.931 | 0.925 | 0.899 | 0.95 | 0.461 | 0.529 | 0.469 | 0.485 | 0.492
14 | SK-LU-1 | 0.311 | 0.227 | 0.217 | 0.246 | 0.229 | 0.544 | 0.354 | 0.336 | 0.327 | 0.343 | 0.86 | 0.712 | 0.711 | 0.774 | 0.731 | 0.3 | 0.266 | 0.251 | 0.256 | 0.278
15 | SK-MES-1 | 0.664 | 0.68 | 0.634 | 0.66 | 0.694 | 0.385 | 0.421 | 0.369 | 0.398 | 0.432 | 1.05 | 1.03 | 1.04 | 1.15 | 1.14 | 0.904 | 0.983 | 0.872 | 1.05 | 0.908
16 | SW 1573 | 0.711 | 0.846 | 0.527 | 0.69 | 0.64 | 0.472 | 0.589 | 0.595 | 0.419 | 0.412 | 0.869 | 0.905 | 0.869 | 0.804 | 0.782 | 0.16 | 0.171 | 0.198 | 0.284 | 0.214
